Assay results published in paper PMC6204372, “An RORγt Oral Inhibitor Modulates IL-17 Responses in Peripheral Blood and Intestinal Mucosa of Crohn's Disease Patients” (Frontiers in Immunology, 2018).

Molecular target: T1, RORγ (RORγt) ligand-binding domain (Homo sapiens, UniProt P51449)
T1 construct: gene RORC
T1 sequence (P51449 265-507 limits assumed): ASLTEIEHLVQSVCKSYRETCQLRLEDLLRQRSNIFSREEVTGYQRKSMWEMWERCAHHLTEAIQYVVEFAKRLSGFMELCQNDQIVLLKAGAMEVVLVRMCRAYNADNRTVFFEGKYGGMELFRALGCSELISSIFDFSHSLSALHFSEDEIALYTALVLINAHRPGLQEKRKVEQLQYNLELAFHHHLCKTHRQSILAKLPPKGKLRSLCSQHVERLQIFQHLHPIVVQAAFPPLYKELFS
Test: Kd for human RORγ LBD (binding method not stated); also RORγ LBD reporter assay IC50 […]

BI119
Kd: 0.065 µM
